Test results published in PMC6767236, “Selective Cannabinoid 2 Receptor Agonists as Potential Therapeutic Drugs for the Treatment of Endotoxin-Induced Uveitis” (Molecules, 2019).
Where two headings read alike, the source gives them in different places. Marks after values point to notes of the source that are not given here.

How the values were obtained:
[1] = in vivo; conditions: for AUCINF D: mouse, i.v., HU308 2 mg/kg, RO6871304 0.5 mg/kg
Procedure: Mouse Pharmacokinetic Profiles
Male C57Bl/6 mice (Charles River, Fra nce) were used to study the pharmacokinetics of CB 2R ligands after i.v. and p.o. administration. Animals were up to 12 weeks of age. All animal studies in this section were performed at Hoffmann-La Roche and approved by the Federal Food Safety and Veterinary Office of the Swiss Confederation. Test compounds were formulated according to respective protocols either by dissolution (i.v.) or as aqueous suspensions in a glass potter until homogeneity was achieved (p.o.; formulated as a solution in ethanol/cremophor EL/ 0.9% NaCl (5%/5%/90%)). Formulations were injected i.v. using a 30G needle in the lateral tail vein of mice using a volume of 50 μL in the dose indicated. For p.o. applications, animals were gavaged using a volume of 100 μL in the dose indicated. At the following time points blood was drawn into EDTA: 0.08, 0.25, 0.5, 1, 2, 4, 7 h (for p.o. the first time point was omitted). Six animals were used for each compound.
Animals were distributed randomly over the time course and at each time point, a volume of 100 μL of blood was taken. Quantitative plasma measurement of the compound was performed by LC-MS/MS analysis. Pharmacokinetic analysis was performed using Phoenix WinNonlin 6.4 software using a non-compartmental approach consistent with the route of administration. For assessment of the exposure, Cmax, Tmax, and area under the curve (AUC) were determined from the serum concentration profiles. Parameters (clearance, […], T1/2) were estimated using nominal sampling times relative to the start of each administration. Co (initial concentration) was extrapolated from the first concentration measured following i.v. administration. […]

[2] = biological target: T1, human CB1R (Homo sapiens, UniProt P21554)
T1 construct: host or cells: CHO
T1 sequence (P21554 whole entry): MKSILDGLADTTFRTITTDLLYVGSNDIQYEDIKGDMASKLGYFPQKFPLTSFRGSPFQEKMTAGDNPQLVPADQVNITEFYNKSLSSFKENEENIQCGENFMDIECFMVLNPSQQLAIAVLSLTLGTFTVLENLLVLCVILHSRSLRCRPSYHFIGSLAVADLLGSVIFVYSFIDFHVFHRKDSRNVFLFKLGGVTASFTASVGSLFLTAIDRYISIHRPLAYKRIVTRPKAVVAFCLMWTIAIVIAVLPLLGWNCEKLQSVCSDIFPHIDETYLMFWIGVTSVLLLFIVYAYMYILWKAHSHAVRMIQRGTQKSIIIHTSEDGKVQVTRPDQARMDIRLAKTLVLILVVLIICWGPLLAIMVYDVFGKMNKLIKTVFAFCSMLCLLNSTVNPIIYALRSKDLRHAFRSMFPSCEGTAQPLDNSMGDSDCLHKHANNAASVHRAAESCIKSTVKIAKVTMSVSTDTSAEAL

[3] = biological target: T2, human CB2R (Homo sapiens, UniProt P34972); conditions: cited from earlier work; for EC50: read-out: hCB2R: beta arrestin EC50
T2 construct: bgal (beta-galactosidase fragment of the PathHunter system, named only in the cell line's name); host or cells: CHO-K1 (CHOK1hCB2_bgal)
T2 sequence (P34972 whole entry, the tested form may be a part): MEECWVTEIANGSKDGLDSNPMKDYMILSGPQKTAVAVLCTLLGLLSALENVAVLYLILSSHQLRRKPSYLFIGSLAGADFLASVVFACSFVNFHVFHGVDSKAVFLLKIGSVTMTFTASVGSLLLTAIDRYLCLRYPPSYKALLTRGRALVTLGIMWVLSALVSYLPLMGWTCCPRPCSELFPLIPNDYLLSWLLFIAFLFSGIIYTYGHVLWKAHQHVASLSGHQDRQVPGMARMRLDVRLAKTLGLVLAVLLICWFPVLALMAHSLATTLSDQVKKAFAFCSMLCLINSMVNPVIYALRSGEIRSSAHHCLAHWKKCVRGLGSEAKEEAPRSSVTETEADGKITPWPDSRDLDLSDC

[4] = cited from earlier work; for PAMPA Peff: * at end of cell: previously published; for PAMPA %Acceptor / PAMPA %Donor / PAMPA %Membrane: * previously published
[5] = biological target: T3, mouse CB2R (Mus musculus, UniProt P47936); experiment: biochemical; assay type: binding; set-up: bgal (beta-galactosidase fragment of the PathHunter system, named only in the cell line's name); host or cells: CHO-K1 (CHOK1mCB2_bgal)
T3 sequence (P47936 whole entry, the tested form may be a part): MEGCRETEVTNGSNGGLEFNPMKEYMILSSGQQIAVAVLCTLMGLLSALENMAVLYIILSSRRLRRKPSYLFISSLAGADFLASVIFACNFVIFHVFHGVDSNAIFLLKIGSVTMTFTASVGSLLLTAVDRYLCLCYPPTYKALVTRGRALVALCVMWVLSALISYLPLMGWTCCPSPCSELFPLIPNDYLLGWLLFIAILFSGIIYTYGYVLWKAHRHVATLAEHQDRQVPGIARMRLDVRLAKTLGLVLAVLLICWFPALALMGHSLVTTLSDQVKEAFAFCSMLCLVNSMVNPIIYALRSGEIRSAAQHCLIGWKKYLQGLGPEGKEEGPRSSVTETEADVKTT
Procedure: Membrane fractions were prepared from cultured CHOK1hCB1_bgal, CHOK1hCB2_bgal, and CHOK1mCB2_bgal cells (DiscoveRx, Fremont, CA, USA) as previously described. Protein concentration was determined using the Pierce bicinchoninic acid (BCA) protein assay (Rochford, IL, USA) as per the manufacturer’s instructions.
Radio ligand-binding assays were carried out as described by Souethoudt et al. (2018). Briefly, membranes from cells expressing human CB2R or CB1R or mouse CB2R and the radioligand, [^3H]-CP55940 (Perkin Elmer, Basel, Switzerland) was used. […] Membrane aliquots containing 5 µg (CHOK1hCB1_bgal) or 1 µg (CHOK1hCB2_bgal) of membrane protein in 100 µL assay buffer (50 mMTris-HCl, 5 mM MgCl2, 0.1% bovine serum albumin (BSA), pH 7.4) were incubated at 30 °C for 1 h, in presence of 3.5 nM of [^3H]-CP55940 (CHOK1hCB1_bgal) or 1.5 nM [^3H]-CP55940 (CHOK1hCB2_bgal). The incubation was terminated by rapid filtration performed on glass microfibre (GF/C) filters (Whatman International, Maidstone, UK), presoaked for 30 min with 0.25% polyethyleneimine (PEI), and using a Brandel harvester (Brandel, Gaithersburg, MD, USA). Filter-bound radioactivity was determined by scintillation spectrometry using a Tri-Carb 2900 TR liquid scintillation counter (Perkin Elmer, Boston, MA, USA). For mouse experiments, spleens were collected as previously described and resuspended in 2 mM Tris-EDTA, 320 mM sucrose, 5 mM MgCl2 (pH 7.4). Tissue was homogenized with a Potter homogenizer and centrifuged three times at 1000× g (10 min). The supernatants were centrifuged at 18,000× g (30 min), and the pellets were resuspended in assay buffer (50 mM Tris-HCl, 2 mM Tris-EDTA, 3 mM MgCl2, pH 7.4). These membrane fractions were used in rapid filtration assays with 400 pM of [^3H]-CP55,940. In all receptor binding experiments, nonspecific binding was determined in the presence of 1 µM “cold” agonist.

[6] = * previously published; cited from earlier work
[7] = set-up: method as in earlier work; conditions: * previously published; cited from earlier work
[8] = test system: mouse P-gp; conditions: cited from earlier work; for P-glycoprotein-Mediated Efflux Extraction Ratio mouse: mouse P-gp, * previously published; for P-gp substrate, mouse: underlying data previously published
[9] = set-up: method as in earlier work; conditions: * previously published, cited from earlier work
[10] = biological target: T3, mouse CB2R; set-up: bgal (beta-galactosidase fragment of the PathHunter system, named only in the cell line's name); host or cells: CHO-K1 (CHOK1mCB2_bgal); conditions: * previously published; read-out: mouse CB2R: cAMP EC50; cited from earlier work
[11] = male, C57Bl/6, mouse, in vivo, iv
[12] = male, C57Bl/6, mouse, in vivo, iv, 2 mg/kg
[13] = underlying data previously published
[14] = [3H]-CP55940 displacement; * previously published; read-out: hCB1R: Ki; cited from earlier work
[15] = [3H]-CP55940 displacement, read-out: mouse CB2R: Ki
[16] = species ratio of binding affinity

Row | Structure (SMILES) | half-life [1, 11] | AUCINF D [1] | hCB2R: beta arrestin efficacy ([3]; * previously published) | functional behaviour in hCB2R β-arrestin assay [3, 13] | PAMPA Peff [4] | PAMPA %Acceptor [4] | PAMPA %Donor [4] | PAMPA %Membrane [4] | Ki [2, 14] | Plasma Protein Binding: FREE Fraction human [6] | Plasma Protein Binding: FREE Fraction mouse [7] | P-glycoprotein-Mediated Efflux Extraction Ratio mouse [8] | Ki [5, 15] | P-gp substrate, mouse [8] | hCB2R Ki/mouse CB2R Ki [5, 16] | EC50 [10] | other results
1 | CCCCCCC(C)(C)c1cc(OC)c([C@H]2C=C(CO)[C@H]3C[C@@H]2C3(C)C)c(OC)c1 [HU308, {(1S,4S,5S)-4-[2,6-Dimethoxy-4-(2-methyloctan-2-yl)phenyl]-6,6-dimethylbicyclo[3.1.1]hept-2-en-2-yl}methanol, reference compound] | 2.15 h | 456 ng·kg·h/mL/mg | 107% | full agonist | 2.53 10*-6 cm/s | 3% | 23% | 74% | – | – | – | – | – | – | – | – | Vd [1, 12]: 2.9 L/kg; clearance [1, 12]: 36.6 mL/min/kg; Ki ([2]; read-out: hCB1R: Ki; [3H]-CP55940 displacement; * previously published; cited from earlier work): 4600 nM; Ki [5]: 223 nM
2 | CCCCCCC(C)(C)c1cc(OC)c(C2=C[C@H]3CC[C@]2(CO)C3(C)C)c(OC)c1 [HU910, {(1S,4R)-2-[2,6-dimethoxy-4-(2-methyloctan-2-yl)phenyl]-7,7-dimethylbicyclo[2.2.1]hept-2-en-1-yl}methanol, reference compound] | – | – | – | – | 0.45 10*-6 cm/s | 1% | 42% | 57% | 3730 nM | 1.8% | 4.1% | 3.0 | 276 nM | – | – | – | functional behaviour in hCB2R β-arrestin assay [3]: full agonist; hCB2R: beta arrestin efficacy [3]: 109, 81 * %; EC50 [3]: 109 nM; hCB2R Ki/mouse CB2R Ki [5]: 0.2
3 | CNC(=O)[C@@H](NC(=O)c1cc(OCC2(C)COC2)c(C2CC2)cn1)C(C)(C)C [RO6851228, 5-Cyclopropyl-N-[(2S)-3,3-dimethyl-1-(methylamino)-1-oxobutan-2-yl]-4-[(3-methyloxetan-3-yl)methoxy]pyridine-2-carboxamide] | – | – | – | – | 5.17 10*-6 cm/s | 19% | 79% | 3% | 6490 nM | 9.6% | – | 25.1 | – | strong P-gp substrate | 45 | 4 nM | pKa (basic) [9]: 3.3
4 | Cc1nc([C@](C)(CC2CC2)NC(=O)c2cc(OCC(F)(F)F)c(C3CC3)cn2)no1 [RO6871085, 5-Cyclopropyl-N-[(2S)-1-cyclopropyl-2-(5-methyl-1,2,4-oxadiazol-3-yl)propan-2-yl]-4-(2,2,2-trifluoroethoxy)pyridine-2-carboxamide] | – | – | – | – | 2.44 10*-6 cm/s | 2% | 20% | 78% | 3380 nM | 1.0% | 0.9% | 1.7 | – | not a P-gp substrate | 13 | 3 nM | pKa (acidic, calculated) ([9]; calculated): 10.1; pKa (basic, calculated) ([9]; calculated): 2.6
5 | CC(C)(C)c1nc(N2CC[C@H](O)C2)c2nnn(Cc3nnnn3C3CC3)c2n1 [RO6871304, (3S)-1-{5-tert-butyl-3-[(1-cyclopropyl-1H-tetrazol-5-yl)methyl]-3H-[1,2, 3]triazolo[4,5-d]pyrimidin-7-yl}pyrrolidin-3-ol] | 0.32 h | 456 ng·kg·h/mL/mg | 119% | full agonist | 3.06 10*-6 cm/s | 8% | 62% | 30% | > 10000 nM | – | – | – | 34 nM | – | 0.5 | – | EC50 ([3]; * previously published): 21 nM
